Among the data in ChEMBL document CHEMBL5120847, “Enceleamycins A-C, Furo-Naphthoquinones from Amycolatopsis sp. MCC0218: Isolation, Structure Elucidation, and Antimicrobial Activity” (2022) are MIC values, retold here.

Each structure is given as a SMILES string. Converted amounts (≈) assume the structure as drawn.

What all share (assay type): functional
One experiment deals with Listeria monocytogenes. Nature of the experiment: Antibacterial activity against Listeria monocytogenes ATCC19111 assessed as inhibition of visible bacterial growth incubated for 18 hrs by CLSI protocol based assay.
In experiment [1] the test system is Staphylococcus aureus. Nature of the experiment: Antibacterial activity against methicillin-resistant Staphylococcus aureus clinical isolate 6B assessed as inhibition of visible bacterial growth incubated for 18 hrs by CLSI protocol based assay.
Experiment [2] has as its system Mycolicibacterium smegmatis. Nature of the experiment: Antibacterial activity against Mycobacterium smegmatis ATCC 607 assessed as inhibition of visible bacterial growth incubated for 48 hrs by CLSI protocol based assay.
Experiment [3] has as its system Staphylococcus aureus. Nature of the experiment: Antibacterial activity against Staphylococcus aureus ATCC 9144 assessed as inhibition of visible bacterial growth incubated for 18 hrs by CLSI protocol based assay.
For experiment [4], the system named is Staphylococcus aureus. Nature of the experiment: Antibacterial activity against methicillin-resistant Staphylococcus aureus clinical isolate 10B assessed as inhibition of visible bacterial growth incubated for 18 hrs by CLSI protocol based assay.
A further experiment has as its system Bacillus subtilis. Nature of the experiment: Antibacterial activity against Bacillus subtilis ATCC 6633 assessed as inhibition of visible bacterial growth incubated for 18 hrs by CLSI protocol based assay.
The test system of experiment [5] is Staphylococcus aureus. Nature of the experiment: Antibacterial activity against methicillin-resistant Staphylococcus aureus clinical isolate 3B assessed as inhibition of visible bacterial growth incubated for 18 hrs by CLSI protocol based assay.
The subject of a further experiment is Micrococcus luteus. Nature of the experiment: Antibacterial activity against Micrococcus luteus ATCC 9341 assessed as inhibition of visible bacterial growth incubated for 18 hrs by CLSI protocol based assay.
The next experiment deals with Pseudomonas aeruginosa. Nature of the experiment: Antibacterial activity against Pseudomonas aeruginosa ATCC 9027 assessed as inhibition of visible bacterial growth incubated for 18 hrs by CLSI protocol based assay.
In a further experiment the test system is Bacillus cereus. Nature of the experiment: Antibacterial activity against Bacillus cereus ATCC 11778 assessed as inhibition of visible bacterial growth incubated for 18 hrs by CLSI protocol based assay.
For experiment [6], the system named is Staphylococcus epidermidis. Nature of the experiment: Antibacterial activity against Staphylococcus epidermidis ATCC 12228 assessed as inhibition of visible bacterial growth incubated for 18 hrs by CLSI protocol based assay.
Another experiment deals with Escherichia coli. Nature of the experiment: Antibacterial activity against Escherichia coli ATCC 8739 assessed as inhibition of visible bacterial growth incubated for 18 hrs by CLSI protocol based assay.
In experiment [7] the test system is Staphylococcus aureus. Nature of the experiment: Antibacterial activity against methicillin-resistant Staphylococcus aureus clinical isolate 9B assessed as inhibition of visible bacterial growth incubated for 18 hrs by CLSI protocol based assay.

In general, MIC refers to the lowest concentration found to suppress growth. `CC1(C)S[C@@H]2[C@H](NC(=O)[C@H](N)c3ccccc3)C(=O)N2[C@H]1C(=O)O` [AMPICILLIN]: the MIC in the experiment on Listeria monocytogenes turned out to be 0.03 µg/mL (≈ 0.0859 µM); in the experiment with Staphylococcus aureus [1] it was 8 µg/mL (≈ 22.9 µM); in experiment [2] it was 64 µg/mL (≈ 183 µM); with Staphylococcus aureus [3], 0.03 µg/mL (≈ 0.0859 µM); with Staphylococcus aureus [4], 4 µg/mL (≈ 11.4 µM); with Bacillus subtilis, 0.03 µg/mL (≈ 0.0859 µM). Moreover, the MIC in the experiment on Staphylococcus aureus [5] is 8 µg/mL (≈ 22.9 µM); in the experiment on Micrococcus luteus it was 0.03 µg/mL (≈ 0.0859 µM); in the experiment on Pseudomonas aeruginosa it was 2 µg/mL (≈ 5.72 µM); in the experiment on Bacillus cereus, 16 µg/mL (≈ 45.8 µM); in experiment [6], 1 µg/mL (≈ 2.86 µM).
For the compound `C[C@H]1O[C@@H]2O[C@@H]3C4C(=O)c5cccc(O)c5C(=O)C4O[C@]3(C)[C@@]21O` (stereo partly specified), the MIC is 2 µg/mL (≈ 6.02 µM) with Listeria monocytogenes; > 128 µg/mL with Escherichia coli; 4 µg/mL (≈ 12 µM) in the experiment on Staphylococcus aureus [1]; 64 µg/mL (≈ 193 µM) in [2]; 2 µg/mL (≈ 6.02 µM) in the experiment with Staphylococcus aureus [3]; 4 µg/mL (≈ 12 µM) in the experiment on Staphylococcus aureus [4]. Besides, the MIC is 4 µg/mL (≈ 12 µM) in the experiment with Bacillus subtilis; 4 µg/mL (≈ 12 µM) in the experiment on Staphylococcus aureus [5]; 8 µg/mL (≈ 24.1 µM) in the experiment with Micrococcus luteus; > 128 µg/mL in the experiment on Pseudomonas aeruginosa; 4 µg/mL (≈ 12 µM) in the experiment with Staphylococcus aureus [7]; 8 µg/mL (≈ 24.1 µM) with Bacillus cereus. Also, the minimal inhibitory concentration (MIC) in experiment [6] was found to be 2 µg/mL (≈ 6.02 µM).
Regarding `C[C@H]1O[C@]12[C@@H](O)O[C@H]1[C@]2(C)O[C@]2(O)C(=O)c3c(O)cccc3C(=O)[C@@]12O`, the MIC is 128 µg/mL (≈ 351 µM) in the experiment with Listeria monocytogenes; > 128 µg/mL in the experiment on Escherichia coli; > 128 µg/mL in the experiment on Staphylococcus aureus [1]; > 128 µg/mL in experiment [2]; 128 µg/mL (≈ 351 µM) with Staphylococcus aureus [3]; 128 µg/mL (≈ 351 µM) in the experiment with Staphylococcus aureus [4]. Besides, the MIC in the experiment with Bacillus subtilis, with Staphylococcus aureus [5], in the experiment with Micrococcus luteus, with Pseudomonas aeruginosa, with Staphylococcus aureus [7] and in the experiment with Bacillus cereus was > 128 µg/mL in each case. The minimum inhibitory concentration (MIC) in [6] is 64 µg/mL (≈ 176 µM).
Take `CC(C)Cc1nc([C@H](C)C(=O)O)c(C(C)C)n(O)c1=O`: the MIC was 128 µg/mL (≈ 453 µM) in the experiment on Listeria monocytogenes; > 128 µg/mL with Escherichia coli; 128 µg/mL (≈ 453 µM) in the experiment with Staphylococcus aureus [1]; > 128 µg/mL in experiment [2]; 128 µg/mL (≈ 453 µM) in the experiment on Staphylococcus aureus [3]; 128 µg/mL (≈ 453 µM) in the experiment on Staphylococcus aureus [4]. Also, the MIC was 128 µg/mL (≈ 453 µM) with Bacillus subtilis; 128 µg/mL (≈ 453 µM) in the experiment on Staphylococcus aureus [5]; 64 µg/mL (≈ 227 µM) with Micrococcus luteus; > 128 µg/mL with Pseudomonas aeruginosa; 128 µg/mL (≈ 453 µM) in the experiment on Staphylococcus aureus [7]; 128 µg/mL (≈ 453 µM) with Bacillus cereus. Also, the MIC in experiment [6] was 64 µg/mL (≈ 227 µM).
Regarding `C[C@H]1O[C@@H]2C3=C(O[C@]2(C)[C@@]1(O)C=O)C(=O)c1c(O)cccc1C3=O`, the MIC in the experiment on Listeria monocytogenes is 8 µg/mL (≈ 24.2 µM); in the experiment with Escherichia coli it was > 128 µg/mL; in the experiment on Staphylococcus aureus [1], 8 µg/mL (≈ 24.2 µM); in experiment [2], 64 µg/mL (≈ 194 µM); in the experiment with Staphylococcus aureus [3], 8 µg/mL (≈ 24.2 µM); with Staphylococcus aureus [4], 8 µg/mL (≈ 24.2 µM). The MIC is 16 µg/mL (≈ 48.4 µM) with Bacillus subtilis; 16 µg/mL (≈ 48.4 µM) in the experiment on Staphylococcus aureus [5]; 32 µg/mL (≈ 96.9 µM) in the experiment on Micrococcus luteus; > 128 µg/mL with Pseudomonas aeruginosa; 16 µg/mL (≈ 48.4 µM) with Staphylococcus aureus [7]; 16 µg/mL (≈ 48.4 µM) with Bacillus cereus. Moreover, in [6], the MIC was found to be 8 µg/mL (≈ 24.2 µM).
Consider `NC[C@H]1O[C@H](O[C@H]2[C@H](O)[C@@H](O[C@H]3O[C@H](CO)[C@@H](O)[C@H](N)[C@H]3O)[C@H](N)C[C@@H]2N)[C@H](O)[C@@H](O)[C@@H]1O` [KANAMYCIN], for which the MIC in the experiment on Listeria monocytogenes was 1 µg/mL (≈ 2.06 µM); with Escherichia coli it was 8 µg/mL (≈ 16.5 µM); with Staphylococcus aureus [1], > 128 µg/mL; in [2], 0.25 µg/mL (≈ 0.516 µM); in the experiment with Staphylococcus aureus [3] it was 8 µg/mL (≈ 16.5 µM); in the experiment with Staphylococcus aureus [4], > 128 µg/mL. Besides, the MIC in the experiment with Bacillus subtilis is 0.5 µg/mL (≈ 1.03 µM); with Staphylococcus aureus [5], > 128 µg/mL; in the experiment with Micrococcus luteus, 8 µg/mL (≈ 16.5 µM); with Pseudomonas aeruginosa, 8 µg/mL (≈ 16.5 µM); in the experiment with Staphylococcus aureus [7], 128 µg/mL (≈ 264 µM); with Bacillus cereus, 2 µg/mL (≈ 4.13 µM). Further, in experiment [6], the MIC amounted to 1 µg/mL (≈ 2.06 µM).
